Reference: ChEMBL document CHEMBL6103589, “Synthesis and evaluation of novel ebselen derivatives as urease inhibitors for combating Helicobacter pylori infections” (Eur J Med Chem, 2025)
Activity calls are given as the source filed them. No cut-off for these calls is given here.

Tests used:
[1] = system: Helicobacter pylori; assay: Protection against Helicobacter pylori ATCC 43504 infected (MOI 400:1) in human GES1 cell injury model assessed as early apoptotic cells at 50 uM pre-treated for 2 hrs followed by bacterial infection measured after 6 hrs by Annexin/V-FITC staining based flow cytometry analysis (reference value: 42.41 %); assay type: functional; settings: time 8 hrs
[2] = system: Helicobacter pylori; assay: Protection against Helicobacter pylori ATCC 43504 infected (MOI 100:1) in human GES1 cell injury model assessed as early apoptotic cells at 25 uM pre-treated for 2 hrs followed by bacterial infection measured after 6 hrs by Annexin/V-FITC staining based flow cytometry analysis (reference value: 24.66 %); assay type: functional; settings: time 8 hrs
[3] = system: Helicobacter pylori; assay: Protection against Helicobacter pylori ATCC 43504 infected (MOI 300:1) in human GES1 cell injury model assessed as early apoptotic cells at 50 uM pre-treated for 2 hrs followed by bacterial infection measured after 6 hrs by Annexin/V-FITC staining based flow cytometry analysis (reference value: 34.57 %); assay type: functional; settings: time 8 hrs
[4] = system: Helicobacter pylori; assay: In vivo protection against Helicobacter pylori ATCC 43504 infected in BALB/c mouse gastric mucosa model assessed as appearance of intact tissue structure at low dose administered once a day for 2 weeks by HE staining based analysis; assay type: functional, organism-based
[5] = system: Helicobacter pylori; assay: Protection against Helicobacter pylori ATCC 43504 infected (MOI 100:1) in human GES1 cell injury model assessed as late apoptotic cells at 50 uM pre-treated for 2 hrs followed by bacterial infection measured after 6 hrs by Annexin/V-FITC staining based flow cytometry analysis (reference value: 4.16%); assay type: functional; settings: time 8 hrs
[6] = system: GES1; assay: Induction of ROS generation in human GES1 cells infected (25 to 400:1 MOI) with Helicobacter pylori ATCC 43504 assessed as increase in fluorescence intensity at 25 to 50 uM by DCFH-DA based Immunofluorescence analysis; assay type: functional, cell-based; settings: dose 25-50 µM
[7] = system: GES1; assay: Induction of ROS generation in human GES1 cells infected (25 to 400:1 MOI) with Helicobacter pylori ATCC 43504 assessed as decrease in fluorescence intensity at 25 to 50 uM by DCFH-DA based Immunofluorescence analysis; assay type: functional, cell-based; settings: dose 25-50 µM
[8] = system: Helicobacter pylori; assay: Protection against Helicobacter pylori ATCC 43504 infected (MOI 400:1) in human GES1 cell injury model assessed as early apoptotic cells at 25 uM pre-treated for 2 hrs followed by bacterial infection measured after 6 hrs by Annexin/V-FITC staining based flow cytometry analysis (reference value: 42.41 %); assay type: functional; settings: time 8 hrs
[9] = system: Helicobacter pylori; assay: Protection against Helicobacter pylori ATCC 43504 infected (MOI 50:1) in human GES1 cell injury model assessed as viable cells at 25 uM pre-treated for 2 hrs measured after 6 hrs by Annexin/V-FITC staining based flow cytometry analysis (reference value: 81.14%); assay type: functional; settings: time 8 hrs
[10] = system: Helicobacter pylori; assay: In vivo protection against Helicobacter pylori ATCC 43504 infected in BALB/c mouse gastric mucosa model assessed as effect on bleeding at high dose administered once a day for 2 weeks by HE staining based analysis; assay type: functional, organism-based
[11] = system: Helicobacter pylori; assay: Protection against Helicobacter pylori ATCC 43504 infected (MOI 50:1) in human GES1 cell injury model assessed as necrotic cells at 50 uM pre-treated for 2 hrs followed by bacterial infection measured after 6 hrs by Annexin/V-FITC staining based flow cytometry analysis (reference value: 2.85%); assay type: functional; settings: time 8 hrs
[12] = system: Helicobacter pylori; assay: Protection against Helicobacter pylori ATCC 43504 infected (MOI 300:1) in human GES1 cell injury model assessed as necrotic cells at 50 uM pre-treated for 2 hrs followed by bacterial infection measured after 6 hrs by Annexin/V-FITC staining based flow cytometry analysis (reference value: 6.05%); assay type: functional; settings: time 8 hrs
[13] = system: Helicobacter pylori; assay: Protection against Helicobacter pylori ATCC 43504 infected (MOI 100:1) in human GES1 cell injury model assessed as necrotic cells at 25 uM pre-treated for 2 hrs followed by bacterial infection measured after 6 hrs by Annexin/V-FITC staining based flow cytometry analysis (reference value: 2.82%); assay type: functional; settings: time 8 hrs
[14] = system: Helicobacter pylori; assay: Protection against Helicobacter pylori ATCC 43504 infected (MOI 400:1) in human GES1 cell injury model assessed as viable cells at 25 uM pre-treated for 2 hrs followed by bacterial infection measured after 6 hrs by Annexin/V-FITC staining based flow cytometry analysis (reference value: 37.61%); assay type: functional; settings: time 8 hrs
[15] = system: Helicobacter pylori; assay: Protection against Helicobacter pylori ATCC 43504 infected (MOI 50:1) in human GES1 cell injury model assessed as late apoptotic cells at 25 uM pre-treated for 2 hrs measured after 6 hrs by Annexin/V-FITC staining based flow cytometry analysis (reference value: 2.85%); assay type: functional; settings: time 8 hrs
[16] = system: Helicobacter pylori; assay: Protection against Helicobacter pylori ATCC 43504 infected (MOI 200:1) in human GES1 cell injury model assessed as early apoptotic cells at 50 uM pre-treated for 2 hrs followed by bacterial infection measured after 6 hrs by Annexin/V-FITC staining based flow cytometry analysis (reference value: 31.93 %); assay type: functional; settings: time 8 hrs
[17] = system: Helicobacter pylori; assay: In vivo protection against Helicobacter pylori ATCC 43504 infected in BALB/c mouse gastric mucosa model assessed as appearance of intact epithelium at high dose administered once a day for 2 weeks by HE staining based analysis; assay type: functional, organism-based
[18] = system: Helicobacter pylori; assay: Protection against Helicobacter pylori ATCC 43504 infected (MOI 50:1) in human GES1 cell injury model assessed as early apoptotic cells at 25 uM pre-treated for 2 hrs measured after 6 hrs by Annexin/V-FITC staining based flow cytometry analysis (reference value: 13.16 %); assay type: functional; settings: time 8 hrs
[19] = system: Helicobacter pylori; assay: Antibacterial activity against Helicobacter pylori ATCC 43504 assessed as inhibition of bacterial colonies at 8 ug/mL incubated for 24 hrs by crystal violet based staining based analysis relative to control; assay type: functional; design: scale not given: the % may be the effect or the level left; settings: dose 8 µg/ml
[20] = system: Helicobacter pylori; assay: In vivo protection against Helicobacter pylori ATCC 43504 infected in BALB/c mouse gastric mucosa model assessed as effect on inflammatory cell infiltration at 25 mg/kg administered once a day for 2 weeks by HE staining based analysis; assay type: functional, organism-based
[21] = Acute toxicity in BALB/c mouse assessed as change in daily behaviour at 1 g/Kg, po single dose administered for 7 days; assay type: organism-based; settings: in vivo, 1000 mg/kg, 168 h, time 7 day
[22] = system: Helicobacter pylori; assay: Protection against Helicobacter pylori ATCC 43504 infected (MOI 25:1) in human GES1 cell injury model assessed as early apoptotic cells at 50 uM pre-treated for 2 hrs followed by bacterial infection measured after 6 hrs by Annexin/V-FITC staining based flow cytometry analysis (reference value: 9.89%); assay type: functional; settings: time 8 hrs
[23] = system: Helicobacter pylori; assay: Protection against Helicobacter pylori ATCC 43504 infected (MOI 300:1) in human GES1 cell injury model assessed as early apoptotic cells at 25 uM pre-treated for 2 hrs followed by bacterial infection measured after 6 hrs by Annexin/V-FITC staining based flow cytometry analysis (reference value: 34.57 %); assay type: functional; settings: time 8 hrs
[24] = system: Helicobacter pylori; assay: Protection against Helicobacter pylori ATCC 43504 infected (MOI 50:1) in human GES1 cell injury model assessed as necrotic cells at 25 uM pre-treated for 2 hrs followed by bacterial infection measured after 6 hrs by Annexin/V-FITC staining based flow cytometry analysis (reference value: 2.85%); assay type: functional; settings: time 8 hrs
[25] = system: GES1; assay: Cytotoxicity against human GES1 cells at upto 75 uM by MTT assay; assay type: toxicity, cell-based; settings: ges1, 75 µM

## O=C(Oc1n[se]c2ccccc12)c1cccc(F)c1
[1]
  Activity: 7.61%
[2]
  Activity: 7.64%
[3]
  Activity: 3.14%
[4]
  Activity: Active
[5]
  Activity: 0.23%
[6]
  Activity: Active
[7]
  Activity: Active
[8]
  Activity: 17.23%
[9]
  Activity: 95.32%
[10]
  Activity: inactive
[11]
  Activity: 0.02%
[12]
  Activity: 2.01%
[13]
  Activity: 0.43%
[14]
  Activity: 82.13%
[15]
  Activity: 0.05%
[16]
  Activity: 4.38%
[17]
  Activity: Active
[18]
  Activity: 4.49%
[19]
  Activity: 100%
[20]
  Activity: Active
[21]
  Activity: Non-toxic
[22]
  Activity: 0.51%
[23]
  Activity: 15.81%
[24]
  Activity: 0.14%
[25]
  Activity: Non-toxic
